19 compounds from ChEMBL document CHEMBL3593188, “Exploring the size adaptability of the B ring binding zone of the colchicine site of tubulin with para-nitrogen substituted isocombretastatins” (Eur J Med Chem, 2015) can be followed below.

Data set [1] can be described thus: Aqueous solubility of the compound in phosphate buffer at pH 7 after 48 hrs by spectrophotometric analysis. It counts as physicochemical.
Data set [2] is described as follows: Inhibition of calf brain tubulin polymerization after 20 mins by spectrophotometric analysis. On the set-up: species or system Bos taurus.
Data set [3] has as its system HT-29. Kind of data set: Cytotoxicity against human HT-29 cells assessed as inhibition of cell proliferation after 72 hrs by XTT assay. It counts as functional, cell-based. Particulars: HT-29, 72 h.
Data set [4] relates to HT-29. The data set is described as follows: Cell cycle arrest in human HT-29 cells assessed as accumulation at G2/M phase at 100 nM after 24 hrs by propidium iodide staining-based flow cytometric analysis. It counts as functional.
The next data set deals with HL-60. Kind of data set: Cytotoxicity against human HL60 cells assessed as inhibition of cell proliferation after 72 hrs by XTT assay. It counts as functional, cell-based. Conditions: HL-60, 72 h.
The subject of another data set is HeLa. Kind of data set: Cytotoxicity against human HeLa cells assessed as inhibition of cell proliferation after 72 hrs by XTT assay. It counts as functional, cell-based.
For data set [5], the system named is HT-29. Kind of data set: Cell cycle arrest in human HT-29 cells assessed as accumulation at G2/M phase at 50 nM after 24 hrs by propidium iodide staining-based flow cytometric analysis. It counts as functional.
Data set [6] relates to HT-29. Kind of data set: Inhibition of autophagy in human HT-29 cells assessed as accumulation of slower migrating LC3-I band at 35 nM after 24 to 72 hrs by Western blot analysis. It counts as functional, cell-based.
The next data set has as its system HCT-116. Kind of data set: Induction of microtubule disruption in human HCT116 cells at 50 nM after 24 hrs by DAPI staining-based confocal microscopic analysis. It counts as cell-based.
Data set [7] deals with HT-29. The data set is described as follows: Inhibition of autophagy in human HT-29 cells assessed as absence of faster migrating LC3-II band decay at 35 nM after 24 to 72 hrs by Western blot analysis. It counts as functional, cell-based.

Values after ≈ are worked out from the molar mass of the structure shown. Active and inactive are the calls of the source. The calls are words filed in the database; no cut-off is given here.

`CCn1c2ccccc2c2cc(/C(=N/O)c3cc(OC)c(OC)c(OC)c3)ccc21` came in with a solubility at 48 h in data set [1] of 4.2 µg/mL (≈ 10.4 µM). Besides, the IC50 in data set [2] stood at 1600 nM; in the data set on HT-29 [3] it was 300 nM; with HL-60, 100 nM; with HeLa it was 100 nM. Also, the result in the data set with HT-29 [4] was inactive.
`COc1cc(C(=O)c2ccc(N3CCCC3)cc2)cc(OC)c1OC` showed a solubility at 48 h in data set [1] of 2.6 µg/mL (≈ 7.62 µM). Besides, the IC50 in [2] was above 5000 nM; with HT-29 [3] it was above 1000 nM; in the data set with HL-60, 800 nM; with HeLa it was 800 nM.
In data set [1], `CCn1c2ccccc2c2cc(C(=O)c3cc(OC)c(OC)c(OC)c3)ccc21` gave a solubility at 48 h of 2 µg/mL (≈ 5.14 µM). The IC50 in [2] was 1600 nM; in the data set with HT-29 [3], 400 nM; in the data set on HL-60, 700 nM; in the data set on HeLa, 700 nM. The result in the data set on HT-29 [4] was inactive.
Turning to `C=C(c1cc(OC)c(OC)c(OC)c1)c1ccc(N(C)C)c(C2OCCO2)c1`, in data set [1], the solubility at 48 h is 11 µg/mL (≈ 28.5 µM). The IC50 in [2] was above 5000 nM; in the data set on HT-29 [3], above 1000 nM; in the data set with HL-60 it was 800 nM; with HeLa, 600 nM.
Regarding `C=C(c1cc(OC)c(OC)c(OC)c1)c1ccc2c(c1)c1ccccc1n2CC`, in data set [1], the solubility at 48 h was 2.5 µg/mL (≈ 6.45 µM). Besides, the IC50 in data set [2] was determined as 900 nM; in the data set on HT-29 [3], 200 nM; in the data set with HL-60, 90 nM; in the data set on HeLa it was 80 nM. Besides, the result in the data set with HT-29 [4] was Active.
For the compound `C=C(c1ccc(N(C)C)c(C#N)c1)c1cc(OC)c(OC)c(OC)c1`, in data set [1], the solubility at 48 h was 84 µg/mL (≈ 248 µM). The IC50 is above 5000 nM in data set [2], 960 nM in the data set on HT-29 [3], 800 nM in the data set with HL-60 and 400 nM in the data set with HeLa.
Compound `COc1cc(C(=O)c2ccc(N(C)C)c(C=O)c2)cc(OC)c1OC` registered a solubility at 48 h in data set [1] of 8.9 µg/mL (≈ 25.9 µM). For the same compound, the IC50 in data set [2] is above 20000 nM; in the data set with HT-29 [3], above 1000 nM; in the data set on HL-60, above 1000 nM; in the data set with HeLa, above 1000 nM.
As to `COc1ccc(/C=C\c2cc(OC)c(OC)c(OC)c2)cc1O` [COMBRETASTATIN A4], the IC50 in [2] came out at 3000 nM; in the data set on HT-29 [3] it was 30 nM.
In data set [1], `COc1cc(/C(=N/O)c2ccc(N3CCCC3)cc2)cc(OC)c1OC` came in with a solubility at 48 h of 13.7 µg/mL (≈ 38.4 µM). The IC50 in [2] is above 5000 nM; in the data set with HT-29 [3], above 1000 nM; in the data set with HL-60, 400 nM; in the data set on HeLa, 600 nM.
In [1], `C=C(c1ccc(N(C)C)cc1)c1cc(OC)c(OC)c(OC)c1` returned a solubility at 48 h of 30 µg/mL (≈ 95.7 µM). The IC50 in data set [2] was 1900 nM; in the data set on HT-29 [3] it was 70 nM; in the data set with HL-60, 10 nM; with HeLa, 40 nM. In addition, the Activity in the data set with HT-29 [5] is above 85%. Further, the inhibition entry in the data set with HT-29 [6] and in the data set with HT-29 [7] was “Active” in each case. The outcome in the data set on HCT-116 was Active.
`C=C(c1ccc(N(C)C)c(N)c1)c1cc(OC)c(OC)c(OC)c1`: the IC50 in [2] was above 5000 nM; in the data set on HT-29 [3], 600 nM; with HL-60, 400 nM; in the data set with HeLa it was 500 nM.
The compound `C=C(c1ccc(N(C)C)c(C=O)c1)c1cc(OC)c(OC)c(OC)c1` had a solubility at 48 h in [1] of 107 µg/mL (≈ 313 µM). Further, the IC50 was above 10000 nM in data set [2], above 1000 nM in the data set with HT-29 [3], 900 nM with HL-60 and 800 nM in the data set with HeLa.
For `COc1cc(C(=O)c2ccc(N(C)C)c(N)c2)cc(OC)c1OC`, the IC50 in data set [2] was above 5000 nM; with HT-29 [3], 900 nM; in the data set on HL-60, 700 nM; in the data set with HeLa it was 600 nM.
`C=C(c1ccc(N(C)C)c(C=NO)c1)c1cc(OC)c(OC)c(OC)c1` yielded a solubility at 48 h in data set [1] of 123 µg/mL (≈ 345 µM). Besides, the IC50 in data set [2] is above 5000 nM; with HT-29 [3], above 1000 nM; with HL-60 it was 1000 nM; with HeLa it was 900 nM.
Regarding `C=C(c1ccc(N2CCCC2)cc1)c1cc(OC)c(OC)c(OC)c1`, the solubility at 48 h in data set [1] amounted to 1.3 µg/mL (≈ 3.83 µM). Moreover, the IC50 in [2] is 1100 nM; in the data set with HT-29 [3] it was 600 nM; in the data set on HL-60 it was 400 nM; in the data set with HeLa, 200 nM. The result in the data set with HT-29 [4] was Active.
`COc1cc(C(=O)c2ccc(N(C)C)c([N+](=O)[O-])c2)cc(OC)c1OC` came in with a solubility at 48 h in [1] of 3.7 µg/mL (≈ 10.3 µM). Further, the IC50 in data set [2] was above 20000 nM; in the data set on HT-29 [3], above 1000 nM; in the data set on HL-60, above 1000 nM; in the data set with HeLa it was above 1000 nM.
`C/C=C(/c1cc(OC)c(OC)c(OC)c1)c1ccc2c(c1)c1ccccc1n2CC` yielded a solubility at 48 h in [1] of 1.8 µg/mL (≈ 4.48 µM). Further, the IC50 was found to be 1500 nM in data set [2], 560 nM with HT-29 [3], 400 nM in the data set on HL-60 and 700 nM with HeLa. The result with HT-29 [4] was inactive.
For `COc1cc(C(=O)c2ccc(N(C)C)cc2)cc(OC)c1OC`, the IC50 in data set [2] was above 20000 nM; in the data set on HT-29 [3], 400 nM; in the data set with HL-60 it was 200 nM; in the data set on HeLa it was 90 nM.
In the case of `COc1cc(/C(=N/O)c2ccc(N(C)C)cc2)cc(OC)c1OC`, the solubility at 48 h in data set [1] amounted to 74 µg/mL (≈ 224 µM). For the same compound, the IC50 in [2] is above 10000 nM; with HT-29 [3], 10000 nM; in the data set with HL-60, 600 nM; in the data set on HeLa it was 800 nM.
